System: human acute myelogenous leukemia cell strain MV4-11
Experiment: In-vivo anti-tumor test, NOD-SCID mouse subcutaneously transplanted human leukemic solid tumor model
Settings: NOD-SCID mice, intragastric
Source text: The object of this assay was to determine the in-vivo anti-tumor effect of the present compound. In this assay, a NOD-SCID mouse subcutaneously transplanted human leukemic solid tumor model was used to test the present compound 8-29 for the in-vivo anti-tumor activity. The used cell strain was human acute myelogenous leukemia cell strain MV4-11.
NOD-SCID mice, aged 6-8 weeks, were inoculated with MV4-11 cell subcutaneously at the posterior segment of rib in a concentration of about 1×10^7 cells/0.1 ml per mouse. Upon the growth of the tumor up to 400-500 mm^3 (about 20 days), mice were grouped (n=6) and administrated intragastrically.
Observation Indices: the mice were measured every three days for the weight, and the length and width of tumor, and the tumor volume was calculated as length×width^2×0.52. […] 3. Results

For `CC(C)n1c(Nc2cccnc2)nc2cnc(Nc3ccc(N4CCN(C)CC4)cc3)nc21` [Compounds 8-29], the “in-vivo tumor growth inhibition” value (MV4-11 xenograft, 5 mg/kg q.d. or higher (5, 10, 20 mg/kg q.d.)) was “substantial in-vivo growth inhibition” and the “toxicity (untoward reactions: weight reduction, exanthema, diarrhea)” value (5-20 mg/kg q.d.) was “low toxicity”.

From US9096601B2 (CSPC Zhongqi Pharmaceutical Technology (Shijiazhuang) Co., …, priority 2010, dated 2015)
